# Source: US8518965B2, “Compositions and methods for treating cancer” (Trustees of Dartmouth College, priority 2009, dated 2013)
# Columns and labels:
# [1] = State of stock and injection solutions in water + co-solvents; type: physicochemical
# Method: The solubility of D11B in various combinations of solvents was also analyzed. […] For the analysis of co-solvents, stock solutions were prepared by dissolving D11B in a corresponding solvent. Stock solutions of D11B in dimethylsulfoxide (DMSO) were prepared at 25° C., and stock solutions of D11B in PEG-400, CREMOPHOR® EL and Polysorbate 80 were prepared at 100° C. Injection solutions, in water (0.3 mg/ml), were prepared by dropwise addition of the stock solution to a required volume of vigorously stirred hot water (80° C.).
# Additional solubility determinations were carried out with D11B×2AH in water+co-solvents. For this analysis, stock solutions were prepared by dissolving D11B×2AH in a corresponding solvent. Stock solutions of D11B×2AH in DMSO were prepared at 25° C. and stock solutions of D11B×2AH in PEG-400 were prepared at 100° C.
# Injection solutions in water (0.3 mg/ml) were prepared by dropwise addition of each stock solution to a required volume of vigorously stirred water.
# [2] = system: SF 295 human glioblastoma cells; experiment: Colony formation assay, SF 295 cells; type: cell-based
# Method: (§1) NCI/ADR-RES human breast cancer cells (500 cells), HCT116 human colon cancer cells (400 cells) or SF 295 human glioblastoma cells (1000 cells) were plated in 60 mm Petri dishes containing 2.7 ml of medium (modified McCoy's 5a medium containing 10% fetal bovine serum and 100 units/ml penicillin and 100 μg/ml streptomycin). The cells were incubated in a CO2 incubator at 37° C. for 5 hours for attachment to the bottom of Petri dishes. Compounds were prepared fresh in medium at ten times the final concentration, and then 0.3 ml of this stock solution was added to the 2.7 ml of medium in the dish. The cells were then incubated with compounds for 72 hours at 37° C. At the end of incubation, the compound-containing media were decanted, the dishes were rinsed with 4 ml of Hank's Balance Salt Solution (HBSS), 5 ml of fresh medium was added, and the dishes were returned to the incubator for colony formation. The cell colonies were counted using a colony counter after incubation for 14 days for NCI/ADR-RES cells and 10 days for HCT116 cells and SF 295 cells. Cell survival was calculated and the IC50 values (the drug concentration producing 50% inhibition of colony formation) were determined for each tested compound.
# One thousand SF 295 cells were plated in 60 mm Petri dishes containing 2.7 ml of medium (modified McCoy's 5a medium containing 10% fetal bovine serum and 100 units/ml penicillin and 100 μg/ml streptomycin). The cells were incubated in a CO2 incubator at 37° C. for 5 hours for attachment to the bottom of Petri dishes. Compounds were prepared fresh in medium at ten times the final concentration, and then 0.3 ml of this stock solution was added to the 2.7 ml of medium in the dish. The cells were then incubated with the compounds for 72 hours at 37° C. At the end of incubation, the compound-containing media were decanted, the dishes were rinsed with 4 ml of Hank's Balance Salt Solution (HBSS), 5 ml of fresh medium was added, and the dishes were returned to the incubator for colony formation. After incubation for 10 days, the cell colonies were counted using a colony counter. Cell survival was calculated and the values of IC50 were determined for each compound tested.
# [3] = system: HCT116 human colon cancer cells; experiment: Colony formation assay, HCT116 cells; type: cell-based
# Method: as §1
# Four hundred HCT116 cells were plated in 60 mm Petri dishes containing 2.7 ml of medium (modified McCoy's 5a medium containing 10% fetal bovine serum and 100 units/ml penicillin and 100 μg/ml streptomycin). The cells were incubated in a CO2 incubator at 37° C. for 5 hours for attachment to the bottom of Petri dishes. Compounds were prepared fresh in medium at ten times the final concentration, and then 0.3 ml of this stock solution was added to the 2.7 ml of medium in the dish. The cells were then incubated with drugs for 72 hours at 37° C. At the end of incubation the compound-containing media were decanted, the dishes were rinsed with 4 ml of Hank's Balance Salt Solution (HBSS), 5 ml of fresh medium was added, and the dishes were returned to the incubator for colony formation. HCT116 cell colonies were counted using a colony counter after […] of incubation. Cell survival was calculated and IC50 values were determined for each compound tested.
# [4] = system: NCI/ADR-RES human breast cancer cells; experiment: Colony formation assay, NCI/ADR-RES cells; type: cell-based; settings: 72 hours with compound, colonies counted after 14 days
# Method: as §1
# [5] = system: SF 295 human glioblastoma xenografts; experiment: In vivo efficacy, SF 295 xenografts in nude mice; settings: D11B 382 mg/kg single i.p. injection
# Method: In vivo anticancer efficacy studies were performed on nude mice (nu/nu genotype) bearing SF 295 human glioblastoma xenografts. […]. Treatment was initiated at that time, with the first day of treatment designated as day 0 for all calculations and plots. […] Compound doses were 382 mg/kg for D11B, 212 mg/kg for D15B, 5 mg/kg for D25B, and 10.6 mg/kg for D35B. Mice in the control group bearing 3 mm diameter tumors was treated with vehicle alone. After treatment, tumor sizes were measured by caliper every day. Daily measurements of the tumor diameters (d1, d2) in two orthogonal directions was used to calculate the tumor volume (tumor volume=π/6{(d1+d2)/2}^3) using the approximation that the tumors were spherical. The values of time (days) required to grow the tumor to twice their initial size after various treatments was calculated as tumor doubling time (TDT) for evaluating the treatment effects. Survival times and curative effects after treatment were also observed and recorded.
# in vivo = settings: C3H/HeN, mouse, ip
# Method: The MTD40 (maximum tolerated dose at day 40) values were determined on normal C3H/HeN mice using standard procedures. […] The result of this exercise was two dosages, one apparently nonlethal and the other lethal, if severe and irreversible toxicity occurred and euthanasia was required. Six mice were dosed at each dosage. If no severe and irreversible toxicity occurred at the lower dosage and at least one with severe and irreversible toxicity at the higher dose, then the lower dose was considered to be the MTD.
# Compounds were administered to C3H/HeN mice by intraperitoneal injection (5% alcohol, 5% CREMOPHOR® EL, and 90% saline, 0.5 ml/20 gram, single injection). Drug toxicity was evaluated on mice checked daily for 40 days. The toxicity parameters reported were the MTD40. […] At the end of experiment, all mice were euthanized.
# The toxicity parameters reported were the MTD40. At the end of experiment, all mice will be euthanized.
compound,measurement,setting,value
c1ccc2c(Nc3ccc(Oc4ccc(Nc5c6ccccc6nc6ccccc56)cc4)cc3)c3ccccc3nc2c1 [Compound D11B],State of the stock solution,"[1]; D11B in DMSO, 20 mg/ml",clear
same,State of the stock solution,"[1]; D11B in DMSO, 30 mg/ml",clear
same,State of the stock solution,"[1]; D11B in DMSO, 40.5 mg/ml",clear
same,State of the stock solution,"[1]; D11B in DMSO, 50 mg/ml",clear
same,State of the stock solution,"[1]; D11B in DMSO, 70 mg/ml",clear
same,State of the stock solution,"[1]; D11B in DMSO, 100 mg/ml",clear
same,State of the injection solution,"[1]; D11B in H2O-CREMOPHOR EL, 0.3 mg/ml, CREMOPHOR EL 1 wt. %",clear
same,State of the injection solution,"[1]; D11B in H2O-PEG-400 0.3 mg/ml, stock 12 mg/ml, PEG-400 2.82 wt. %",clear^b
same,State of the injection solution,"[1]; D11B in H2O-PEG-400 0.3 mg/ml, stock 20 mg/ml, PEG-400 1.7 wt. %",clear^a
same,State of the injection solution,"[1]; D11B in H2O-Polysorbate 80, 0.3 mg/ml, Polysorbate 80 1 wt. %",clear
same,State of the injection solution,"[1]; D11B in H2O—DMSO 0.3 mg/ml, stock 20 mg/ml, DMSO 1.65 wt. %",clear
same,State of the injection solution,"[1]; D11B in H2O—DMSO 0.3 mg/ml, stock 30 mg/ml, DMSO 1.1 wt. %",clear
same,State of the injection solution,"[1]; D11B in H2O—DMSO 0.3 mg/ml, stock 40.5 mg/ml, DMSO 0.83 wt. %",clear
same,State of the injection solution,"[1]; D11B in H2O—DMSO 0.3 mg/ml, stock 50 mg/ml, DMSO 0.66 wt. %",clear
same,State of the injection solution,"[1]; D11B in H2O—DMSO 0.3 mg/ml, stock 70 mg/ml, DMSO 0.47 wt. %",clear
same,State of the injection solution,"[1]; D11B in H2O—DMSO 0.3 mg/ml, stock 100 mg/ml, DMSO 0.33 wt. %",clear
same,State of the stock solution,"[1]; D11B in PEG-400, 12 mg/ml",clear
same,State of the stock solution,"[1]; D11B in PEG-400, 20 mg/ml",gel
same,State of the stock solution,"[1]; D11B in PEG-400, 40 mg/ml",gel
same,State of the stock solution,"[1]; D11B in Polysorbate 80, 32.25 mg/ml",clear
same,IC50,"[2]; Homo sapiens, SF 295 cells, 72 hours with compound, colonies counted after 10 days, read-out: IC50 (nM) Glioblastoma",177 nM
same,IC50 values lower for glioblastoma cells as compared to breast cancer cells,[2]; glioblastoma vs breast cancer cells,approximately 10 fold
same,IC50,"[3]; Homo sapiens, HCT-116, HCT116 cells, 72 hours with compound, colonies counted after 10 days, read-out: IC50 (nM) Colon Cancer",167 nM
same,IC50 values lower for colon cells as compared to breast cancer cells,[3]; colon vs breast cancer cells,approximately 10 fold
same,IC50,[4],1310 nM
same,Curative effect,[5],one mouse was even cured
same,Ratio of TDTs (D11B treated over control),[5],9.8
same,TDT (tumor doubling time),[5]; control group 2.5 days,24.5 days
same,Mean survival time,[5]; control group 40.5 days,≥ 58.67 days
same,MTD at 40 days,in vivo,450 mg/kg
